# US6229016A, “Method for treating tumors using 2-aryl-naphthyridin-4-ones” (priority 2000, dated 2001)
# Experiments:
# Type in all cases: cell-based
# [1] = test system: HCT-116 colon cancer cell line; assay: NCI in vitro screen, colon cancer HCT-116; details: Homo sapiens; HCT-1.16 (head); HCT-116 (footnote); read-out: Cytotoxicity log GI50 (converted)
# [2] = test system: MDA-MB-435 breast cancer cell line; assay: NCI in vitro screen, breast cancer MDA-MB-435; details: Homo sapiens, read-out: Cytotoxicity log GI50 (converted)
# [3] = test system: HL-60(TB) leukemia cell line; assay: cells; details: Homo sapiens; HL-60(TB); read-out: Cytotoxicity log GI50 (converted)
# [4] = test system: MDA-N breast cancer cell line; assay: NCI in vitro screen, breast cancer MDA-N; details: Homo sapiens, read-out: Cytotoxicity log GI50 (converted)
# Text: (§1) Compounds 41-51 and 53-68 were submitted to NCI and assayed in the NCI's in vitro disease-oriented antitumor screen, which involves determination of a test compound's effects on the growth of approximately 60 human tumor cell lines. See, M. R. Boyd, et al. In Cancer: Principles and Practice of Oncology Updates; De Vita, V. T., Hellman, S., Rosenberg, S. A., Eds; J. B. Lippincoft: Philadelphia, pp 1-12 (1989); and A. Monks, et al. J. Natl. Cancer Inst. 83:757 (1991). These lines include leukemia, non-small cell lung, colon, central nervous system (CNS), melanoma, ovarian, renal, prostate, and breast cancers.
# (§2) Compounds 29'-51' were submitted to NCI and assayed in the NCI's in vitro disease-oriented antitumor screen, using the techniques described in Example 5. This assay involves determinations of a test agent's effect on growth parameters against a panel of approximately 60 human tumor cell lines, derived largely from solid tumors, including non-small cell lung, colon, central nervous system, renal, ovarian, prostate, and breast cancers, plus a few leukemia cell lines. The cytotoxic effects of each compound are obtained as GI50 or […] values, which represent the molar drug concentrations required to cause half growth inhibition and total growth inhibition, respectively. The results are expressed for each cell line as average log GI50 values in Table 4, as log GI50 values in Table 5, and as log TGI values and average log TGI values in Table 6.
# [5] = test system: PC-3 prostate cancer cell line; assay: NCI in vitro screen, prostate cancer PC-3; details: Homo sapiens, read-out: Cytotoxicity log GI50 (converted)
# Text: as §1, §2
# [6] = test system: OVCAR-3 ovarian cancer cell line; assay: NCI in vitro screen, ovarian cancer OVCAR-3; details: Homo sapiens, read-out: Cytotoxicity log GI50 (converted)
# [7] = test system: U-251 CNS cancer cell line; assay: NCI in vitro screen, CNS cancer U-251; details: Homo sapiens, read-out: Cytotoxicity log GI50 (converted)
# [8] = test system: NCI's 60 human tumor cell line; assay: NCI 60 human tumor cell line in vitro screen (average / whole panel); details: calculated from all cell lines tested, molar concentrations, read-out: average log GI50 (converted)
# [9] = test system: SK-MEL-5 melanoma cell line; assay: NCI in vitro screen, melanoma SK-MEL-5; details: Homo sapiens, read-out: Cytotoxicity log GI50 (converted)
# Text: as §1, §2
# [10] = test system: SF-295 CNS cancer cell line; assay: NCI in vitro screen, CNS cancer SF-295; details: Homo sapiens, read-out: Cytotoxicity log GI50 (converted)
# [11] = test system: 786-0 renal cancer cell line; assay: NCI in vitro screen, renal cancer 786-0; details: Homo sapiens, read-out: Cytotoxicity log GI50 (converted)
# Text: as §1, §2
# [12] = test system: NCI-H460 non-small cell lung cancer cell line; assay: NCI in vitro screen, non-small cell lung cancer NCI-H460; details: Homo sapiens, read-out: Cytotoxicity log GI50 (converted)
Structure (SMILES),GI50 [1],GI50 [2],GI50 [3],GI50 [4],GI50 [5],GI50 [6],GI50 [7],GI50 [8],GI50 [9],GI50 [10],GI50 [11],GI50 [12]
"Cc1cccc(C2=Nc3ncc(C)cc3C(=O)C2)c1 [Compound 39, 2-(3'-Methylphenyl)-6-methyl-1,8-naphthyridin-4-one]",407 nM,< 10 nM,174 nM,< 10 nM,309 nM,251 nM,170 nM,646 nM,288 nM,417 nM,437 nM,
"Cc1cc(C)c2c(=O)cc(-c3ccc4ccccc4c3)[nH]c2n1 [Compound 51, 2-(β-Naphthyl)-5,7-methyl-1,8-naphthyridin-4-one]",12600 nM,2950 nM,3470 nM,3240 nM,5500 nM,20000 nM,15800 nM,13500 nM,2190 nM,14800 nM,51300 nM,13200 nM
Cc1ccc2c(=O)cc(-c3cccc(F)c3)[nH]c2n1 [30'],28.2 nM,12.3 nM,22.4 nM,14.5 nM,34.7 nM,19.5 nM,38 nM,42.7 nM,22.4 nM,28.8 nM,45.7 nM,33.1 nM
"Cc1ccnc2c1C(=O)CC(c1cccc3ccccc13)=N2 [Compound 43, 2-(α-Naphthyl)-5-methyl-1,8-naphthyridin-4-one]",< 10 nM,< 10 nM,< 10 nM,< 10 nM,20 nM,< 10 nM,< 10 nM,35.5 nM,< 10 nM,10.7 nM,12 nM,< 10 nM
"Cc1cc(C)c2c(n1)N=C(c1cccc3ccccc13)CC2=O [Compound 46, 2-(α-Naphthyl)-5,7-dimethyl-1,8-naphthyridin-4-one]",380 nM,191 nM,245 nM,234 nM,759 nM,347 nM,372 nM,1050 nM,468 nM,589 nM,9550 nM,631 nM
COc1ccc(-c2cc(=O)c3c(C)ccnc3[nH]2)cc1 [Compound 52],6460 nM,2400 nM,4370 nM,2090 nM,18200 nM,13800 nM,6310 nM,12900 nM,3890 nM,19500 nM,25100 nM,6170 nM
Cc1cccc(-c2cc(=O)c3c(C)ccnc3[nH]2)c1 [38'],46.8 nM,< 10 nM,18.2 nM,11 nM,33.1 nM,22.4 nM,53.7 nM,57.5 nM,33.9 nM,30.2 nM,53.7 nM,36.3 nM
Cc1cccc(-c2cc(=O)c3cccnc3[nH]2)c1 [37'],22.4 nM,< 10 nM,19.1 nM,< 10 nM,42.7 nM,41.7 nM,44.7 nM,95.5 nM,25.7 nM,37.2 nM,37.2 nM,25.7 nM
COc1ccc(-c2cc(=O)c3cccnc3[nH]2)cc1 [Compound 51],17800 nM,20000 nM,12900 nM,20900 nM,31600 nM,30200 nM,53700 nM,38000 nM,34700 nM,64600 nM,56200 nM,26300 nM
